Among the test systems are PC-3 prostate; NCI-H522 lung; MDA-MB-231 breast; IGROV1 ovarian; MALME-3M melanoma; EKVX NSCLC; HS 578T breast; UO-31 renal; CAKI-1 renal; HOP-92 NSCLC.
Holding throughout (assay): NCI anticancer screen, dose series, 48 h

Molecules are shown by their SMILES. Several values for one entry are separate records, joined by “and”; a condition that tells them apart may be missing. Identical values can stand only once.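 Growth conditions: 96-well plates. Treatment: test compound, 48 hours, 5 concentrations. Analysis: linear interpolation between bracketing concentrations; unreached endpoints set to highest concentration. GI50: concentration for 50% inhibition of growth. TGI marks complete inhibition of growth.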

In the case of `O=C(O)[C@@H]1C[C@@H](O)CN1C(=O)OCc1ccccc1`, the TGI with PC-3 prostate, with NCI-H522 lung, in the assay with MDA-MB-231 breast, in the assay on IGROV1 ovarian, with MALME-3M melanoma and with EKVX NSCLC was greater than 100 µM throughout. The TGI in the assay with HS 578T breast, with UO-31 renal, in the assay on CAKI-1 renal and in the assay with HOP-92 NSCLC was greater than 100 µM each time.

`COC(=O)c1ccccc1/C=C1/Cc2ccccc2C1=O`: the TGI in the assay with PC-3 prostate was greater than 100 µM; in the assay with NCI-H522 lung, greater than 100 µM; in the assay on MDA-MB-231 breast, greater than 100 µM; in the assay with IGROV1 ovarian, 88.7 µM; with MALME-3M melanoma, greater than 100 µM; in the assay on EKVX NSCLC it was greater than 100 µM. The TGI in the assay on HS 578T breast is 97.3 µM; with UO-31 renal, greater than 100 µM; in the assay with CAKI-1 renal it was greater than 100 µM; in the assay on HOP-92 NSCLC, greater than 100 µM.

`C=C1C(O)C2(O)OCC34C(CC5C(C)=CC(=O)C(O)C5(C)C23)OC(=O)C(OC(=O)C/C=C(\C)CCCCC)C14` (stereo not drawn): the TGI was 0.0032 µM and 0.0141 µM in the assay on PC-3 prostate; 0.0218 µM and 0.162 µM in the assay on MDA-MB-231 breast; less than 0.001 µM with MALME-3M melanoma; less than 0.001 µM with HS 578T breast; 0.269 µM and 1.21 µM and 0.22 µM in the assay with UO-31 renal; 0.00664 µM and 0.0195 µM and 0.0234 µM with HOP-92 NSCLC. The GI50 in the assay on NCI-H522 lung was less than 0.001 µM; in the assay with MDA-MB-231 breast it was 0.0302 µM; in the assay on IGROV1 ovarian it was less than 0.001 µM; in the assay with MALME-3M melanoma, less than 0.001 µM; in the assay with EKVX NSCLC, 0.0479 µM; in the assay on UO-31 renal, 0.0483 µM and 0.258 µM. Further, the GI50 in the assay on CAKI-1 renal was 0.0274 µM and 0.0875 µM; in the assay on HOP-92 NSCLC, 0.00157 µM.

Turning to `COc1ccc2c(c1)O/C(=C\c1cccc(OCC(=O)Nc3nc4c(s3)CCCC4)c1)C2=O`, the GI50 with PC-3 prostate was 12.7 µM; in the assay with NCI-H522 lung, 3.79 µM; with MDA-MB-231 breast, 6.58 µM; in the assay on IGROV1 ovarian it was 0.692 µM; with MALME-3M melanoma, 2.39 µM; in the assay with EKVX NSCLC, greater than 66.3 µM. The GI50 was 35.1 µM in the assay on HS 578T breast, 1.69 µM with UO-31 renal, 4.66 µM in the assay on CAKI-1 renal and 3.68 µM in the assay on HOP-92 NSCLC. The TGI was greater than 60.1 µM in the assay with PC-3 prostate; 13.9 µM with NCI-H522 lung; greater than 53.9 µM in the assay with MDA-MB-231 breast; 2.17 µM in the assay with IGROV1 ovarian; 5.34 µM in the assay with MALME-3M melanoma; greater than 100 µM in the assay with EKVX NSCLC. Further, the TGI was greater than 100 µM in the assay on HS 578T breast, 3.15 µM with UO-31 renal, greater than 100 µM with CAKI-1 renal and 18.5 µM in the assay with HOP-92 NSCLC.

On to `CCOC1CC(=O)c2c(Br)sc(Br)c21` (stereo not drawn), for which the TGI in the assay on PC-3 prostate was determined as 47.2 µM; with NCI-H522 lung, 52.7 µM; in the assay with MDA-MB-231 breast it was 35.9 µM; in the assay on IGROV1 ovarian, 31 µM; with MALME-3M melanoma it was 40.8 µM; in the assay with EKVX NSCLC, 42.7 µM. Besides, the TGI amounted to 90.6 µM in the assay with HS 578T breast, 33.5 µM in the assay on UO-31 renal, 31 µM in the assay on CAKI-1 renal and 35.3 µM in the assay with HOP-92 NSCLC.

As for `O=C(CN1CCCCC1)CC(O)(C(F)(F)F)C(F)(F)F`, the TGI in the assay with PC-3 prostate, with NCI-H522 lung, in the assay with MDA-MB-231 breast, with IGROV1 ovarian, in the assay on MALME-3M melanoma and with EKVX NSCLC was greater than 100 µM throughout. Besides, the TGI in the assay on HS 578T breast, in the assay on UO-31 renal, in the assay on CAKI-1 renal and in the assay with HOP-92 NSCLC was greater than 100 µM throughout.

Regarding `O=c1cc(/C=C/c2ccc(O)c(O)c2)oc(/C=C/c2ccc(O)c(O)c2)c1`, the TGI came out at 17.6 µM in the assay with PC-3 prostate; 4 µM with NCI-H522 lung; 21.6 µM with MDA-MB-231 breast; 16.6 µM in the assay on IGROV1 ovarian; 19.1 µM in the assay on MALME-3M melanoma; 18.1 µM in the assay with EKVX NSCLC. Moreover, the TGI in the assay on HS 578T breast is 65.9 µM; in the assay with UO-31 renal, 15.8 µM; with CAKI-1 renal it was 11.4 µM; in the assay on HOP-92 NSCLC it was 8.78 µM.

In the case of `O=C1c2ccccc2CN1c1ccc(O)cc1`, the TGI with PC-3 prostate, in the assay with NCI-H522 lung, in the assay with MDA-MB-231 breast, with IGROV1 ovarian, with MALME-3M melanoma and with EKVX NSCLC was greater than 100 µM each time. Moreover, the TGI in the assay on HS 578T breast, with CAKI-1 renal and in the assay with HOP-92 NSCLC was greater than 100 µM each time.

Turning to `O=[N+]([O-])C(=C(N1CCCCC1)N1CCCCC1)/C(Cl)=C(\Cl)Br`, the TGI in the assay on PC-3 prostate was found to be 60.3 µM; with NCI-H522 lung, 33.9 µM; in the assay with MDA-MB-231 breast, 70.6 µM; in the assay with IGROV1 ovarian, 90.8 µM; with MALME-3M melanoma it was 64.9 µM; with EKVX NSCLC, 37.1 µM. Besides, the TGI in the assay on HS 578T breast is 45.4 µM; in the assay with UO-31 renal, greater than 100 µM; with CAKI-1 renal, 26.6 µM; in the assay with HOP-92 NSCLC, 53.4 µM.

In the case of `O=C1CCSSCCC(=O)NCCN1`, the TGI in the assay on PC-3 prostate, in the assay with NCI-H522 lung, in the assay with MDA-MB-231 breast, with IGROV1 ovarian, with MALME-3M melanoma and with EKVX NSCLC was greater than 100 µM each time. The TGI in the assay with HS 578T breast, with UO-31 renal, in the assay on CAKI-1 renal and with HOP-92 NSCLC was greater than 100 µM in each case.

On to `C/C(N=Nc1nc2ccccc2s1)=C1/C=CC=CN1O`, for which the TGI in the assay on PC-3 prostate was greater than 100 µM; in the assay on NCI-H522 lung, 91.6 µM; with MDA-MB-231 breast, greater than 100 µM; with IGROV1 ovarian it was greater than 100 µM; in the assay on MALME-3M melanoma, 57.4 µM; in the assay on EKVX NSCLC, 6.03 µM. In addition, the TGI was greater than 100 µM in the assay with HS 578T breast, greater than 100 µM with UO-31 renal, greater than 100 µM with CAKI-1 renal and 60.9 µM in the assay on HOP-92 NSCLC.

Take `CSCCC(NCc1c(O)ccc2c(-c3ccccc3)cc(=O)oc12)C(=O)O` (stereo not drawn): the TGI in the assay with PC-3 prostate, with NCI-H522 lung, with MDA-MB-231 breast, in the assay on IGROV1 ovarian, in the assay with MALME-3M melanoma and with EKVX NSCLC was greater than 100 µM each time. The TGI in the assay on HS 578T breast, in the assay with UO-31 renal, with CAKI-1 renal and with HOP-92 NSCLC was greater than 100 µM each time.

The record behind these values is PubChem BioAssay (NCI).
